Laboratory results from US8592383B2, “Cycloalkyl-fused tetrahydroquinolines as CRTH2 receptor modulators” (Merck Sharp & Dohme Corp., priority 2011, dated 2013).

target: T1, hCRTH2 (Homo sapiens, UniProt Q9Y5Y4); parameters: expressed in transfected cells; host or cells: HEK (human embryonic kidney) cells expressing hCRTH2; details: Radioligand Binding Assay B; 0.7 nM [3H]PGD2, HEK-hCRTH2 membranes
T1 sequence (Q9Y5Y4 1-395): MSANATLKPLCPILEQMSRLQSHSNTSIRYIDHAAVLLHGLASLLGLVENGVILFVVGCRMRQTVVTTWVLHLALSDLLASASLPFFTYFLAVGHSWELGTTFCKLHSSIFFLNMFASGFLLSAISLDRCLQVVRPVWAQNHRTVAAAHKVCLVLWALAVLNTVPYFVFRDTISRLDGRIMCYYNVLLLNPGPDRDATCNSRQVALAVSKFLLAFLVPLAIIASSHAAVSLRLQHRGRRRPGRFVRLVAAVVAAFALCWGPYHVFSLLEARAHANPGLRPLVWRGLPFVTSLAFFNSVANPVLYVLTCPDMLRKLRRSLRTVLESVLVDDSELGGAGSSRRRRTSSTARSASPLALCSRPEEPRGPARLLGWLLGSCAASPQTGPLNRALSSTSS
Experimental: The filters were then washed with 4 mL of the same buffer and residual radioligand bound to the filter was determined by liquid scintillation counting following equilibration in 25 μl Ultima Gold F™ (Unifilter) (Packard).

| Ki | Compound |
| --- | --- |
| 18.4 nM | O=C(O)CCC(=O)N(C1CC1)C1c2ccccc2N(C(=O)c2ccc(Cl)cc2)C2CCCC21 (racemic) [14K, 4-[{cis,cis-4-[(4-chlorophenyl)carbonyl]-2,3,3a,4,9,9a-hexahydro-1H-cyclopenta[b]quinolin-9-yl}(cyclopropyl)amino]-4-oxobutanoic acid] |
| 414 nM | COC(=O)CCC(=O)N(C1CC1)C1c2ccccc2N(C(=O)c2ccc(Cl)cc2)C2CCCC21 (racemic) [14P, methyl 4-[{cis,cis-4-[(4-chlorophenyl)carbonyl]-2,3,3a,4,9,9a-hexahydro-1H-cyclopenta[b]quinolin-9-yl}(cyclopropyl)amino]-4-oxobutanoate] |
| 140 nM | COC(=O)CCC(=O)N(C1CC1)C1c2ccc(F)cc2N(C(=O)c2ccccc2)C2CCCC21 (racemic) [16C, Methyl 4-{cyclopropyl[cis,cis-6-fluoro-4-(phenylcarbonyl)-2,3,3a,4,9,9a-hexahydro-1H-cyclopenta[b]quinolin-9-yl]amino}-4-oxobutanoate] |
| 45.7 nM | O=C(O)CCC(=O)N(C1CC1)C1c2ccccc2N(C(=O)OCc2ccc(Cl)cc2)C2CCCC21 (racemic) [21A, 4-{[cis, cis-4-{[(4-chlorobenzyl)oxy]carbonyl}-2,3,3a,4,9,9a-hexahydro-1H-cyclopenta[b]quinolin-9-yl](cyclopropyl)amino}-4-oxobutanoic acid] |

same assay, conditions: Radioligand Binding Assay B; Table B, rated A-D

| Ki | Compound |
| --- | --- |
| 20.1 to 200 nM | O=C(O)CCC(=O)N(C1CC1)C1c2ccccc2N(C(=O)C2CC2)C2CCCC21 (racemic) [14G, 4-{cyclopropyl[cis,cis-4-(cyclopropylcarbonyl)-2,3,3a,4,9,9a-hexahydro-1H-cyclopenta[b]quinolin-9-yl]amino}-4-oxobutanoic acid] |
| 20.1 to 200 nM | O=C(O)CCC(=O)N(C1CC1)C1c2ccccc2N(C(=O)c2cccc(N3CCOCC3)c2)C2CCCC21 (racemic) [14H, 4-(cyclopropyl{cis,cis-4-[(3-morpholin-4-ylphenyl)carbonyl]-2,3,3a,4,9,9a-hexahydro-1H-cyclopenta[b]quinolin-9-yl}amino)-4-oxobutanoic acid] |
| 5.1 to 20 nM | O=C(O)CCC(=O)N(C1CC1)C1c2ccccc2N(C(=O)c2ccc(Cl)cc2)C2CCCC21 (racemic) [14K, 4-[{cis,cis-4-[(4-chlorophenyl)carbonyl]-2,3,3a,4,9,9a-hexahydro-1H-cyclopenta[b]quinolin-9-yl}(cyclopropyl)amino]-4-oxobutanoic acid] |
| 20.1 to 200 nM | COc1ccc(C(=O)N2c3ccccc3C(N(C(=O)CCC(=O)O)C3CC3)C3CCCC32)cc1 (racemic) [14L, 4-(cyclopropyl{cis,cis-4-[(4-methoxyphenyl)carbonyl]-2,3,3a,4,9,9a-hexahydro-1H-cyclopenta[b]quinolin-9-yl}amino)-4-oxobutanoic acid] |
| 201 to 7500 nM | COC(=O)CCC(=O)N(C1CC1)C1c2ccccc2N(C(=O)c2cc3ccccc3n2C)C2CCCC21 (racemic) [14N, methyl 4-(cyclopropyl{cis,cis-4-[(1-methyl-1H-indol-2-yl)carbonyl]-2,3,3a,4,9,9a-hexahydro-1H-cyclopenta[b]quinolin-9-yl}amino)-4-oxobutanoate] |
| 201 to 7500 nM | COC(=O)CCC(=O)N(C1CC1)C1c2ccccc2N(C(=O)c2ccc(Cl)cc2)C2CCCC21 (racemic) [14P, methyl 4-[{cis,cis-4-[(4-chlorophenyl)carbonyl]-2,3,3a,4,9,9a-hexahydro-1H-cyclopenta[b]quinolin-9-yl}(cyclopropyl)amino]-4-oxobutanoate] |
| 20.1 to 200 nM | O=C(O)CCC(=O)N(C1CC1)C1c2ccccc2N(C(=O)c2cccnc2)C2CCCC21 (racemic) [14i, 4-{cyclopropyl[cis,cis-4-(pyridin-3-ylcarbonyl)-2,3,3a,4,9,9a-hexahydro-1H-cyclopenta[b]quinolin-9-yl]amino}-4-oxobutanoic acid] |
| 201 to 7500 nM | COC(=O)CCC(=O)N(C1CC1)C1c2ccccc2N(C(=O)c2ccsc2)C2CCCC21 (racemic) [14o, methyl 4-{cyclopropyl[cis,cis-4-(thiophen-3-ylcarbonyl)-2,3,3a,4,9,9a-hexahydro-1H-cyclopenta[b]quinolin-9-yl]amino}-4-oxobutanoate] |
| 201 to 7500 nM | COC(=O)CCC(=O)N(C1CC1)C1c2ccc(F)cc2N(C(=O)c2cccnc2)C2CCCC21 (racemic) [16A, Methyl 4-{cyclopropyl[cis,cis-6-fluoro-4-(pyridin-3-ylcarbonyl)-2,3,3a,4,9,9a-hexahydro-1H-cyclopenta[b]quinolin-9-yl]amino}-4-oxobutanoate] |
| 5.1 to 20 nM | COC(=O)CCC(=O)N(C1CC1)C1c2ccc(F)cc2N(C(=O)c2ccc(Oc3ccccc3)cc2)C2CCCC21 (racemic) [16B, Methyl 4-{cyclopropyl[cis,cis-6-fluoro-4-[(4-phenoxyphenyl)carbonyl]-2,3,3a,4,9,9a-hexahydro-1H-cyclopenta[b]quinolin-9-yl}amino)-4-oxobutanoate] |
| 20.1 to 200 nM | COC(=O)CCC(=O)N(C1CC1)C1c2ccc(F)cc2N(C(=O)c2ccccc2)C2CCCC21 (racemic) [16C, Methyl 4-{cyclopropyl[cis,cis-6-fluoro-4-(phenylcarbonyl)-2,3,3a,4,9,9a-hexahydro-1H-cyclopenta[b]quinolin-9-yl]amino}-4-oxobutanoate] |
| 1 to 5 nM | O=C(O)CCC(=O)N(C1CC1)C1c2ccc(F)cc2N(C(=O)c2ccc(Oc3ccccc3)cc2)C2CCCC21 (racemic) [16E, 4-{cyclopropyl[cis,cis-6-fluoro-4-[(4-phenoxyphenyl)carbonyl]-2,3,3a,4,9,9a-hexahydro-1H-cyclopenta[b]quinolin-9-yl}amino)-4-oxobutanoic acid] |
| 201 to 7500 nM | O=C(O)/C=C/C(=O)N(CC1CC1)C1c2ccccc2N(C(=O)c2ccccc2)C2CCCC12 (racemic) [17H, (2E)-4-[[cis,cis-4-benzoyl-2,3,3a,4,9,9a-hexahydro-1H-cyclopenta[b]quinolin-9-yl](cyclopropylmethyl)amino]-4-oxo-2-butenoic acid] |
| 201 to 7500 nM | CN(C(=O)CCCC(=O)O)C1c2ccccc2N(C(=O)c2ccccc2)C2CCCC12 (racemic) [17N] |
| 201 to 7500 nM | CN(C(=O)/C=C/C(=O)O)C1c2ccccc2N(C(=O)c2ccccc2)C2CCCC12 (racemic) [17P, (2E)-4-[[cis,cis-4-benzoyl-2,3,3a,4,9,9a-hexahydro-1H-cyclopenta[b]quinolin-9-yl]methylamino]-4-oxo-2-butenoic acid] |
| 201 to 7500 nM | CN(C(=O)/C=C/C(=O)O)C1c2ccccc2N(C(=O)c2ccc(OC(F)(F)F)cc2)C2CCCC12 (racemic) [17Q, (2E)-4-[[cis,cis-2,3,3a,4,9,9a-hexahydro-4-[4-(trifluoromethoxy)benzoyl]-1H-cyclopenta[b]quinolin-9-yl]methylamino]-4-oxo-2-butenoic acid] |
| 201 to 7500 nM | CN(C(=O)CCCC(=O)O)C1c2ccccc2N(C(=O)c2ccc(OC(F)(F)F)cc2)C2CCCC12 (racemic) [17o, 5-[[cis,cis-2,3,3a,4,9,9a-hexahydro-4-[4-(trifluoromethoxy)benzoyl]-1H-cyclopenta[b]quinolin-9-yl]methylamino]-5-oxopentanoic acid] |
| 20.1 to 200 nM | O=C(O)CCC(=O)N(C1CC1)C1c2ccccc2N(C(=O)OCc2ccc(Cl)cc2)C2CCCC21 (racemic) [21A, 4-{[cis, cis-4-{[(4-chlorobenzyl)oxy]carbonyl}-2,3,3a,4,9,9a-hexahydro-1H-cyclopenta[b]quinolin-9-yl](cyclopropyl)amino}-4-oxobutanoic acid] |
| 201 to 7500 nM | O=C(O)CCC(=O)N(C1CC1)C1c2ccccc2N(C(=O)Oc2ccc(F)cc2)C2CCCC21 (racemic) [21B, 4-(cyclopropyl{cis, cis-4-[(4-fluorophenoxy)carbonyl]-2,3,3a,4,9,9a-hexahydro-1H-cyclopenta[b]quinolin-9-yl}amino)-4-oxobutanoic acid] |
| 20.1 to 200 nM | O=C(O)CCC(=O)N(C1CC1)C1c2ccccc2N(C(=O)OCc2ccc3ccccc3c2)C2CCCC21 (racemic) [21C, 4-(cyclopropyl{cis, cis-4-[(naphthalen-2-ylmethoxy)carbonyl]-2,3,3a,4,9,9a-hexahydro-1H-cyclopenta[b]quinolin-9-yl}amino)-4-oxobutanoic acid] |
| 20.1 to 200 nM | O=C(O)CCC(=O)N(C1CC1)C1c2ccccc2N(C(=O)OCc2ccccc2F)C2CCCC21 (racemic) [21D, 4-{cyclopropyl[cis, cis-4-{[(2-fluorobenzyl)oxy]carbonyl}-2,3,3a,4,9,9a-hexahydro-1H-cyclopenta[b]quinolin-9-yl]amino}-4-oxobutanoic acid] |
| 20.1 to 200 nM | COc1ccc(COC(=O)N2c3ccccc3C(N(C(=O)CCC(=O)O)C3CC3)C3CCCC32)cc1 (racemic) [21E, 4-{cyclopropyl[cis, cis-4-{[(4-methoxybenzyl)oxy]carbonyl}-2,3,3a,4,9,9a-hexahydro-1H-cyclopenta[b]quinolin-9-yl]amino}-4-oxobutanoic acid] |
